Measured values published in ChEMBL document CHEMBL3885881, “DrugMatrix”.

Organism: Rattus norvegicus
Test: DrugMatrix - Regimen: Daily Repeat
Type: toxicity, organism-based, Sprague-Dawley
Design: regimen Daily Repeat, gender Male, age 6-8 weeks
Conditions: in vivo, po, route oral GAVAGE, vehicle 100 % WATER; for ABSOLUTE BASOPHIL / ABSOLUTE EOSINOPHIL / ABSOLUTE LYMPHOCYTE / ABSOLUTE MONOCYTE / ABSOLUTE SEGMENTED NEUTROPHIL / BASOPHIL / EOSINOPHIL / ERYTHROCYTE COUNT / HEMATOCRIT / HEMOGLOBIN / LEUKOCYTE COUNT / LYMPHOCYTE / MEAN CORPUSCULAR HEMOGLOBIN / MEAN CORPUSCULAR HEMOGLOBIN CONCENTRATION / MEAN CORPUSCULAR VOLUME / MONOCYTE / NEUTROPHIL / NUCLEATED RED BLOOD CELLS / PLATELET COUNT: tissue Blood; for ALANINE AMINOTRANSFERASE / ALBUMIN / ALKALINE PHOSPHATASE / ASPARTATE AMINOTRANSFERASE / BLOOD UREA NITROGEN / CARBON DIOXIDE / CHLORIDE / CHOLESTEROL / CREATINE PHOSPHOKINASE / CREATININE / GLUCOSE / LACTATE DEHYDROGENASE / LIPASE / PHOSPHORUS / POTASSIUM / SODIUM / TOTAL BILIRUBIN / TOTAL PROTEIN / URIC ACID: tissue Plasma
[1] = 17 mg/kg, 72 h, dose level High, time 3 day
[2] = 17 mg/kg, 120 h, dose level High, time 5 day
[3] = […], 72 h, dose 1.7 mg/Kg, dose level Low, time 3 day
[4] = […], 120 h, dose 1.7 mg/Kg, dose level Low, time 5 day

## COP(=O)(OC)OC=C(Cl)Cl [DICHLORVOS]
[1]
  ABSOLUTE BASOPHIL: 0 CELLS/uL
  ABSOLUTE EOSINOPHIL: 43.33 CELLS/uL
  ABSOLUTE LYMPHOCYTE: 12252 CELLS/uL
  ABSOLUTE MONOCYTE: 527.33 CELLS/uL
  ABSOLUTE SEGMENTED NEUTROPHIL: 1577.33 CELLS/uL
  BASOPHIL: 0%
  EOSINOPHIL: 0.33%
  ERYTHROCYTE COUNT: 5.59 x10E6/uL
  HEMATOCRIT: 34.9%
  HEMOGLOBIN: 13.5 G/DL
  LEUKOCYTE COUNT: 14.4 x10E3/uL
  LYMPHOCYTE: 85%
  MEAN CORPUSCULAR HEMOGLOBIN: 24.17 pg
  MEAN CORPUSCULAR HEMOGLOBIN CONCENTRATION: 38.7 G/DL
  MEAN CORPUSCULAR VOLUME: 62.53 fL
  MONOCYTE: 3.67%
  NEUTROPHIL: 11%
  NUCLEATED RED BLOOD CELLS: 0 /100WBC
  PLATELET COUNT: 1225.67 x10E3/uL
  ALANINE AMINOTRANSFERASE: 49.67 u/L
  ALBUMIN: 4 G/DL
  ALKALINE PHOSPHATASE: 370.33 u/L
  ASPARTATE AMINOTRANSFERASE: 92 u/L
  BLOOD UREA NITROGEN: 17.67 mg/dL
  CARBON DIOXIDE: 27 mmol/L
  CHLORIDE: 104.33 MEQ/L
  CHOLESTEROL: 63.67 mg/dL
  CREATINE PHOSPHOKINASE: 448 u/L
  CREATININE: 0.2 mg/dL
  GLUCOSE: 141 mg/dL
  LACTATE DEHYDROGENASE: 444.33 u/L
  LIPASE: 8.33 u/L
  PHOSPHORUS: 12.67 mg/dL
  POTASSIUM: 6.46 MEQ/L
  SODIUM: 145.9 MEQ/L
  TOTAL BILIRUBIN: 0.2 mg/dL
  TOTAL PROTEIN: 5.77 G/DL
  URIC ACID: 1.23 mg/dL
[2]
  ABSOLUTE BASOPHIL: 0 CELLS/uL
  ABSOLUTE EOSINOPHIL: 213.33 CELLS/uL
  ABSOLUTE LYMPHOCYTE: 13980 CELLS/uL
  ABSOLUTE MONOCYTE: 329.33 CELLS/uL
  ABSOLUTE SEGMENTED NEUTROPHIL: 1944 CELLS/uL
  BASOPHIL: 0%
  EOSINOPHIL: 1.33%
  ERYTHROCYTE COUNT: 5.69 x10E6/uL
  HEMATOCRIT: 34.17%
  HEMOGLOBIN: 13.03 G/DL
  LEUKOCYTE COUNT: 16.47 x10E3/uL
  LYMPHOCYTE: 85%
  MEAN CORPUSCULAR HEMOGLOBIN: 22.9 pg
  MEAN CORPUSCULAR HEMOGLOBIN CONCENTRATION: 38.13 G/DL
  MEAN CORPUSCULAR VOLUME: 60.07 fL
  MONOCYTE: 2%
  NEUTROPHIL: 11.67%
  NUCLEATED RED BLOOD CELLS: 0 /100WBC
  PLATELET COUNT: 1272.67 x10E3/uL
  ALANINE AMINOTRANSFERASE: 46 u/L
  ALBUMIN: 4.23 G/DL
  ALKALINE PHOSPHATASE: 289.33 u/L
  ASPARTATE AMINOTRANSFERASE: 91 u/L
  BLOOD UREA NITROGEN: 19.33 mg/dL
  CARBON DIOXIDE: 24.67 mmol/L
  CHLORIDE: 105.33 MEQ/L
  CHOLESTEROL: 60.33 mg/dL
  CREATINE PHOSPHOKINASE: 609.33 u/L
  CREATININE: 0.22 mg/dL
  GLUCOSE: 167.33 mg/dL
  LACTATE DEHYDROGENASE: 458 u/L
  LIPASE: 8.33 u/L
  PHOSPHORUS: 12.8 mg/dL
  POTASSIUM: 5.47 MEQ/L
  SODIUM: 146.93 MEQ/L
  TOTAL BILIRUBIN: 0.13 mg/dL
  TOTAL PROTEIN: 5.8 G/DL
  URIC ACID: 1.37 mg/dL
[3]
  ABSOLUTE BASOPHIL: 0 CELLS/uL
  ABSOLUTE EOSINOPHIL: 0 CELLS/uL
  ABSOLUTE LYMPHOCYTE: 12487 CELLS/uL
  ABSOLUTE MONOCYTE: 388 CELLS/uL
  ABSOLUTE SEGMENTED NEUTROPHIL: 1291.67 CELLS/uL
  BASOPHIL: 0%
  EOSINOPHIL: 0%
  ERYTHROCYTE COUNT: 6.29 x10E6/uL
  HEMATOCRIT: 38.27%
  HEMOGLOBIN: 14.27 G/DL
  LEUKOCYTE COUNT: 14.17 x10E3/uL
  LYMPHOCYTE: 88.33%
  MEAN CORPUSCULAR HEMOGLOBIN: 22.67 pg
  MEAN CORPUSCULAR HEMOGLOBIN CONCENTRATION: 37.3 G/DL
  MEAN CORPUSCULAR VOLUME: 60.77 fL
  MONOCYTE: 2.67%
  NEUTROPHIL: 9%
  NUCLEATED RED BLOOD CELLS: 0 /100WBC
  PLATELET COUNT: 1299 x10E3/uL
  ALANINE AMINOTRANSFERASE: 50 u/L
  ALBUMIN: 4.4 G/DL
  ALKALINE PHOSPHATASE: 363 u/L
  ASPARTATE AMINOTRANSFERASE: 81.33 u/L
  BLOOD UREA NITROGEN: 14.67 mg/dL
  CARBON DIOXIDE: 23 mmol/L
  CHLORIDE: 104 MEQ/L
  CHOLESTEROL: 85.67 mg/dL
  CREATINE PHOSPHOKINASE: 178 u/L
  CREATININE: 0.19 mg/dL
  GLUCOSE: 178.67 mg/dL
  LACTATE DEHYDROGENASE: 95.67 u/L
  LIPASE: 9.33 u/L
  PHOSPHORUS: 13.57 mg/dL
  POTASSIUM: 6.76 MEQ/L
  SODIUM: 146.43 MEQ/L
  TOTAL BILIRUBIN: 0.23 mg/dL
  TOTAL PROTEIN: 6.37 G/DL
  URIC ACID: 3.2 mg/dL
[4]
  ABSOLUTE BASOPHIL: 0 CELLS/uL
  ABSOLUTE EOSINOPHIL: 131 CELLS/uL
  ABSOLUTE LYMPHOCYTE: 11771.67 CELLS/uL
  ABSOLUTE MONOCYTE: 175 CELLS/uL
  ABSOLUTE SEGMENTED NEUTROPHIL: 1055.67 CELLS/uL
  BASOPHIL: 0%
  EOSINOPHIL: 1%
  ERYTHROCYTE COUNT: 5.65 x10E6/uL
  HEMATOCRIT: 34.67%
  HEMOGLOBIN: 13 G/DL
  LEUKOCYTE COUNT: 13.13 x10E3/uL
  LYMPHOCYTE: 89.67%
  MEAN CORPUSCULAR HEMOGLOBIN: 22.97 pg
  MEAN CORPUSCULAR HEMOGLOBIN CONCENTRATION: 37.5 G/DL
  MEAN CORPUSCULAR VOLUME: 61.37 fL
  MONOCYTE: 1.33%
  NEUTROPHIL: 8%
  NUCLEATED RED BLOOD CELLS: 0 /100WBC
  PLATELET COUNT: 1220 x10E3/uL
  ALANINE AMINOTRANSFERASE: 47.67 u/L
  ALBUMIN: 4.2 G/DL
  ALKALINE PHOSPHATASE: 278 u/L
  ASPARTATE AMINOTRANSFERASE: 83.67 u/L
  BLOOD UREA NITROGEN: 18.33 mg/dL
  CARBON DIOXIDE: 25.67 mmol/L
  CHLORIDE: 106.67 MEQ/L
  CHOLESTEROL: 68.33 mg/dL
  CREATINE PHOSPHOKINASE: 322.33 u/L
  CREATININE: 0.19 mg/dL
  GLUCOSE: 144.33 mg/dL
  LACTATE DEHYDROGENASE: 436.33 u/L
  LIPASE: 8.67 u/L
  PHOSPHORUS: 11.6 mg/dL
  POTASSIUM: 6.06 MEQ/L
  SODIUM: 146.23 MEQ/L
  TOTAL BILIRUBIN: 0.2 mg/dL
  TOTAL PROTEIN: 5.9 G/DL
  URIC ACID: 1.03 mg/dL
